In patent US20220304305A1, “HIGHLY EFFECTIVE FORMULATIONS ON THE BASIS OF 2-[(2,4-DICHLORPHENYL)-METHYL]-4,4'-DIMETHYL-3-ISOXAZOLIDINONES AND PREEMERGENCE HERBICIDES” (Bayer Aktiengesellschaft, priority 2019, published 2022):

Legend:
[1] = list of substances and abbreviations used; cited from earlier work
[2] = system: gramineous weeds in winter cereals; test: Greenhouse trials, activity against gramineous weeds (summary in words); assay type: in vivo; details: with both adjuvants from as low as 250 g/ha
Procedure: In the standard implementation of the test, seeds of various broad-leaved weed and weed grass biotypes (origins) were sown in an 8-13 cm diameter pot filled with natural soil of a standard field soil (loamy silt; non-sterile) and covered with a covering soil layer of about 1 cm. The pots were then cultivated in a greenhouse (light for 12-16 h, temperature 20-22° C. by day, 15-18° C. by night) until the time of application. The pots were treated on a laboratory track sprayer with spray liquors comprising the mixtures/compositions of the invention, mixtures of the prior art or the components applied individually. Application of the active ingredients or active ingredient combinations formulated as WG, WP, EC or otherwise was effected at the appropriate growth stages of the plants. The amount of water used for spray application was 100-600 l/ha. After the treatment, the plants were returned to the greenhouses.
About 3 weeks after the application, the soil action or/and foliar action was assessed visually according to a scale of 0-100% in comparison to an untreated comparative group: 0%=no noticeable effect compared to the untreated comparative group; 100%=full effect compared to the untreated comparative group. […]

| Compound | log P [1] | improvement [2] |
| --- | --- | --- |
| CC1(C)CON(Cc2ccc(Cl)cc2Cl)C1=O [DCPMI, 2-[(2,4-dichlorophenyl)methyl]-4,4′-dimethyl-3-isoxazolidinone] | abbreviated hereinafter to DCPMI), log P = 3.39 | significant improvement |
| CC(C)N(C(=O)COc1nnc(C(F)(F)F)s1)c1ccc(F)cc1 [flufenacet, 4′-fluoro-N-isopropyl-2-(5-trifluoromethyl-1,3,4-thiadiazol-2-yloxy)acetanilide] | (Bayer AG), abbreviated hereinafter to FFA, log P = 3.2 | – |
